The values below come from paper doi:10.1101/2025.06.09.658245v1 (biorxiv, 2025).

Data set [1] concerns the target T1, hERG (Homo sapiens, UniProt Q12809). Put plainly: whole-cell patch clamp, IKr current. The class given is cell-based. The conditions noted are these: test concentrations 0.3 to 30 µM; HEK cells stably transfected.
Data set [2] deals with T1, hERG. Put plainly: in vitro. The conditions noted are these: HEK.
A short description of data set [3]: in vitro. The conditions noted are these: mouse, liver microsomes. For orientation: Liver microsomes are vesicles of endoplasmic reticulum, rich in cytochrome P450 enzymes.
The nature of data set [4]: in vitro. The conditions noted are these: mouse, liver microsomes. The source holds these as a separate data set.
The target in data set [5] is T1, hERG. Put plainly: in vitro. The conditions noted are these: HEK. The source holds these as a separate data set.
In another data set the target is T2, hALOX12B (Homo sapiens, UniProt O75342).
T2 sequence (O75342 1-701): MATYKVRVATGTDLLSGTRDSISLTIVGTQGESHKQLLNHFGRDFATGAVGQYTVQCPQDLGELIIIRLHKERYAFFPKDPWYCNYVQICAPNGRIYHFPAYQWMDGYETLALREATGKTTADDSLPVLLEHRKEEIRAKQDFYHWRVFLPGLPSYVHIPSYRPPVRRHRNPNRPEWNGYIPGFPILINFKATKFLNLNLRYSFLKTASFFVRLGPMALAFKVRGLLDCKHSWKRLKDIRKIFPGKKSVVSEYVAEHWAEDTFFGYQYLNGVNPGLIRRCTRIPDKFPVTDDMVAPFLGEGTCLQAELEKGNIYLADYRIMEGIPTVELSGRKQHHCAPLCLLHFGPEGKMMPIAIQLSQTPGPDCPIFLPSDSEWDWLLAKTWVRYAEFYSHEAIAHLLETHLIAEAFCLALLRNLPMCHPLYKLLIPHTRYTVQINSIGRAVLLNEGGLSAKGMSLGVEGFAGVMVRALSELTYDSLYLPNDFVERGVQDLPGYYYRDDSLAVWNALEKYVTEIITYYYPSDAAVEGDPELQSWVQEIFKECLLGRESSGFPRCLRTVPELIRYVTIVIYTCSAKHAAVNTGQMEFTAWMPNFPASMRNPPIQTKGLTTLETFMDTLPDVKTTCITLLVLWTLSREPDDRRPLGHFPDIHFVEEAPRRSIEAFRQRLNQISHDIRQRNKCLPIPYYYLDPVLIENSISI
Briefly: biochemical. Particulars: read-out: % inhibition of ALOX12B enzyme activity.

T1 sequence (Q12809 whole entry): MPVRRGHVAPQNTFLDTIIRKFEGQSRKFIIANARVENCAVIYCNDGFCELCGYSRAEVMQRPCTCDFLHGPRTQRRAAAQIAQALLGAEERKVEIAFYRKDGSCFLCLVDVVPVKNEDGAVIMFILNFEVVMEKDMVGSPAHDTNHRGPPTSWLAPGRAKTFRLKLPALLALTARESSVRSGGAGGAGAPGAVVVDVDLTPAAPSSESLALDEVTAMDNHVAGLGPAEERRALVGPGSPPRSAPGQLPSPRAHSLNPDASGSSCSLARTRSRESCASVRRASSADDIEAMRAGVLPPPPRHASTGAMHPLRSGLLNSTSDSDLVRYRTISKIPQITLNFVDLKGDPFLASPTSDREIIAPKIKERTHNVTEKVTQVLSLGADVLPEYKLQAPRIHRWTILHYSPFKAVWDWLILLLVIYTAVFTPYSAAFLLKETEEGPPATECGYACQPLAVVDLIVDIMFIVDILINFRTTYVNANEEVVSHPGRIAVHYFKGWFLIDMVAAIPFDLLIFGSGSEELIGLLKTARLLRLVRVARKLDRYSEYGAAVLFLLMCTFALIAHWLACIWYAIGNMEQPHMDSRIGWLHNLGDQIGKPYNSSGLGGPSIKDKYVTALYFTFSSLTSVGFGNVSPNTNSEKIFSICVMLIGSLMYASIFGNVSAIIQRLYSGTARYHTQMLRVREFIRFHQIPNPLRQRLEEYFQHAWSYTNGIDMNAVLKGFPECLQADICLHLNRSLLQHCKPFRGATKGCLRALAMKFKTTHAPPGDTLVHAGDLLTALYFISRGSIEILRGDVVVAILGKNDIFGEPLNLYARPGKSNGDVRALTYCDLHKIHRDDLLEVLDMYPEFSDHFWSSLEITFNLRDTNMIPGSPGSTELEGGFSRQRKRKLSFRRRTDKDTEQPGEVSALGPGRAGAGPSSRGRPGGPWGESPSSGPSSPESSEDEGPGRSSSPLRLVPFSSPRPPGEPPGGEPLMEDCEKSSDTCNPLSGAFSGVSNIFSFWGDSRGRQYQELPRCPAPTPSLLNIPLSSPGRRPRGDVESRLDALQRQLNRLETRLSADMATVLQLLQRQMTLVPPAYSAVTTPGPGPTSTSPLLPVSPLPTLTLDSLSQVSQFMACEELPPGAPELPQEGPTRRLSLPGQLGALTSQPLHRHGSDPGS

For `Nc1ccc(O)cc1-c1cc(=O)c2ccccc2o1` [6a], the “% reduction of hERG current at 0.3 to 30 μM” value on hERG [1] is recorded as 9-14%.

With `Nc1ccc(O)cc1-c1cc(=O)c2ccccc2o1` [6a, 2-(2-amino-5-hydroxyphenyl)-4H-chromen-4-one], on hERG [2], the inhibition at 0.3 µM is 13.3%, the inhibition at 1 µM came out at 14.1%, the inhibition at 3 µM turned out to be 10.6% and the inhibition at 10 µM was 10.9%. Further, at hERG [2], the inhibition at 30 µM came out at 9.05%. Besides, the microsomal CLint at 5 µM in “in vitro [3]” worked out at 5.6 µL/min/mg. This compound also came in with a half-life at 5 µM in the data set “in vitro [4]” of 8.25 h. In addition, at hERG [5], the inhibition at 0.1 µM was -8.53%. At hALOX12B, the inhibition at 10 µM is roughly 23%, the inhibition at 100 µM was roughly 40% and the inhibition at 200 µM was roughly 52%.

As a reminder, the inhibition is the drop in the measured response relative to a control, in per cent. What is called microsomal CLint is a measure of how fast metabolising enzymes remove a compound, apart from limits set by blood flow. By half-life is commonly meant the time needed for the level to fall by half in the phase considered. Read a low half-life as fast loss.
